Consider three compounds from publication PMC2804029 (Journal of medicinal chemistry, 2010).

For assay [1], the target named is T1, B. anthracis DHPS (Bacillus anthracis, UniProt Q81VW8). Kind of assay: biochemical. The class given is biochemical.
Assay [2] addresses T1, B. anthracis DHPS. The class given is binding.

SMILES strings stand for the structures. “Also recorded” adds a separate entry of the source.

In general, IC50 refers to the concentration at which inhibition is half-maximal. A higher IC50 goes with weaker potency. In general, inhibition refers to the share of the control response that was lost under treatment.

T1 sequence (Q81VW8 1-280): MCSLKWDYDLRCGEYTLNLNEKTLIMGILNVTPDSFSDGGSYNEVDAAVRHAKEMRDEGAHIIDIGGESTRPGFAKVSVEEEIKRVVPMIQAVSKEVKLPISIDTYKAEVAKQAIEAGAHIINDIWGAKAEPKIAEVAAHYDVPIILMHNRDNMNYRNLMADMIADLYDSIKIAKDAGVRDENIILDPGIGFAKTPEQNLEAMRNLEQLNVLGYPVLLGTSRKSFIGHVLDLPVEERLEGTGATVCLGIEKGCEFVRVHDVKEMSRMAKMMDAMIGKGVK

With `Nc1nc2[nH]c(S)nc2c(=O)[nH]1` [Compound 5], in assay [1], the “percentage inhibition of DHPS” value is “did not show inhibition; also recorded: little or no inhibition”.

Consider `Nc1nc2c(c(=O)[nH]1)N=C(CO)CN2` [Control, 6-hydroxymethyl-7,8-dihydropterin], for which the IC50 in assay [1] is 58.4 µM. The inhibition at 250 µM in assay [1] (read-out: B. anthracis % inhibition) came out at 60%.

Regarding `Nc1ccc(C(=O)O)cc1` [pABA, p-aminobenzoic acid], in assay [2], the “binding (heats of binding) by ITC” value was “does not bind; also recorded: No heats of binding could be detected”.
